Test results from publication PMC11727334, “A self-immolative Kdn-glycoside substrate enables high-throughput screening for inhibitors of Kdnases” (Glycobiology, 2024).
Entries after “also recorded” stand apart in the source; their conditions may differ. Read-outs that look alike come from different tables or passages of the source.

Columns and labels:
[1] = biological target: T1, Kdnase produced by A. fumigatus (AfK) (Aspergillus fumigatus, UniProt Q4WQS0); test: Inhibition assay of recombinant AfK using 4MU-Kdn as substrate; type: biochemical; settings: for IC50: read-out: IC50; for mode of inhibition (Lineweaver-Burk plots) / fold lower IC50 value than that reported for Kdn2en 2: AfK; for fold lower IC50 value than that reported for Kdn2en 2: Kdn2en value from Yeung et al. 2013; for Hill coefficient: pH 4.0; for Ki: calculated Ki = IC50/(([S]/Km) + 1), read-out: Ki
T1 construct: AfK was expressed and purified as described by Telford et al; made in house
T1 sequence (Q4WQS0 21-406): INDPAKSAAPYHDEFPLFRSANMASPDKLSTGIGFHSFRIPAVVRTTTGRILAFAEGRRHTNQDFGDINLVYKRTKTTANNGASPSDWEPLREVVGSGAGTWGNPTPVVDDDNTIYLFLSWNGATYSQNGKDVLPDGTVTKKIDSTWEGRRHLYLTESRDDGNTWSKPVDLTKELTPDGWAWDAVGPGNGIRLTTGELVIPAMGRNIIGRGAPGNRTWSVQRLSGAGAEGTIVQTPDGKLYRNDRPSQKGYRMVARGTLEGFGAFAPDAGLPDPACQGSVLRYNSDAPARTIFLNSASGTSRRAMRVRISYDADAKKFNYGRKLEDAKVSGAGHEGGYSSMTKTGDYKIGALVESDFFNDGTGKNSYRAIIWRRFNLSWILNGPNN
Description: (§1) We purchase fresh commercial material for compounds 13 and 14 and performed inhibition assays using recombinant AfK (Methods, Fig. S8, Supporting Information). We determined IC50 values in quadruplicate using 4MU-Kdn as the substrate ([Yeung et al. 2013]). […] We submitted both compounds to a pan-assay interference compounds (PAINS) filter, a compilation of chemical substructures known to show promiscuous biological activities ([Baell and Nissink 2018]). […] We performed standard inhibition assays as described earlier using inhibitor 13 and these recombinant enzymes. […] We also tested inhibitor 13 with the sialidase MvNA, the closest structural homologue to AfK, that is known to cleave a multitude of substrates including Kdn glycosides ([Telford et al. 2011]).
(§2) Each 200 μM reaction mixture was incubated at rt for 2 min prior to the addition of purified sialidase. Inhibitor was added to the reaction mixture and allowed to incubate at rt between 0–60 min in 100 mM sodium acetate buffer pH 4.0 and 0.01% BSA prior to the addition of substrate. The kinetic parameters were determined from initial rate measurements using a substrate concentration of Km/4. The progress of the reaction was continuously monitored for 15 min using a fluorescence spectrophotometer (BioTek Neo 2) and excitation and emission wavelengths of 360 and 450 nm, respectively.

A. fumigatus = test system: A. fumigatus; set-up: method as in Nesbitt et al. 2018; settings: ref Nesbitt et al. 2018, cited from earlier work
[2] = biological target: Aspergillus terreus Kdnase (AtK) (Aspergillus terreus, UniProt Q0CMX0); test: Inhibition assay of recombinant AtK using Kdn4MU as substrate; type: biochemical; settings: for Hill coefficient: pH 4.0
Chain of Aspergillus terreus Kdnase (AtK) (Q0CMX0 entry or part of it): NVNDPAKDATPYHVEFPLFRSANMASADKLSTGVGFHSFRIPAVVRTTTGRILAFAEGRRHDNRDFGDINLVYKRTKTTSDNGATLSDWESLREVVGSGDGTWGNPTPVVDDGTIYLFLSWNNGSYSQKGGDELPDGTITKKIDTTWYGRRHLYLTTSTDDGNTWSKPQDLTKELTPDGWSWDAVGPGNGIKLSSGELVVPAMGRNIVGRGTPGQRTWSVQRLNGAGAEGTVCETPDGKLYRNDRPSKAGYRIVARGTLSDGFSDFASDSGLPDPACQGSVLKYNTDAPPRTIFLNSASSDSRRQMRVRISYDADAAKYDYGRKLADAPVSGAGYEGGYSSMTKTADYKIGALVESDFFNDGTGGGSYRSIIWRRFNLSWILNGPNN
Description: as §1, §2

AfK [3] = biological target: T2, AfK (Aspergillus fumigatus, UniProt Q4WQS0); test: HTS assay of AfK activity using Kdn glycoside 4 (384-well, stop solution); type: biochemical; settings: TargetMol library pilot screen
T2 construct: AfK was expressed and purified as described by Telford et al; made in house
T2 sequence (Q4WQS0 21-406): as the sequence (Q4WQS0 21-406) above
Protocol: We next miniaturized our assay for use in a 384-well microplate format by optimizing the quantity of detergent and checking for fluorescent signal stability (Figs 2A,S6 and S7 Supporting Information). In each well, we added a solution of buffer containing AfK (50 nM) and then added a library compound using a pin tool. We included both detergent (0.2% (v/v) Tween-20) and BSA (0.01% BSA) to reduce false positives arising from aggregation prone compounds ([Feng et al. 2007]). We then equilibrated the mixture prior to the addition of substrate 4, and the resultant solution was incubated for 1 h after which stop solution was added. To ensure cyclization was complete, the mixture was allowed to react for 1 h prior to measuring the fluorescence. Candidate hits identified in this primary screen were cherry picked and delivered into a gold plate that was used to confirm hits.
To each well in a 384-well microplate, enzyme (20 μL of a 50 nM stock solution) in reaction buffer (100 mM NaOAc, 0.2% Tween-20, 0.01% BSA, pH 4) was added to a library compound (200 nL of 20 μM TargetMol, 10 μM Chembridge), and this mixture was incubated at rt for 1 h. Then, substrate 4 (20 μL of a 50 μM stock) was added and the resultant mixture was incubated at rt for an additional 1 hr. Following addition of stop solution (40 μL of 1 M aqueous K2CO3, pH ≈ 12) to the mixture the plate was incubated for 1 h at rt. Next, the fluorescence for each well was measured (BioTek Neo 2) using an excitation and an emission wavelength of 360 and 450 nm, respectively. The collected data was analyzed using Prism 7.0. We used the known mechanism-based inactivator 2,3-diF-Kdn (3) as the positive control ([Watts et al. 2006]; [Khazaei et al. 2015]). That is, using 2,3-diFKdn at a concentration of 30 μM, following a 10 min incubation, gives a background signal that equates to >90% inhibition.

AtK = test: Differential scanning fluorimetry (DSF) thermal shift assay, AtK; type: binding, Aspergillus terreus; settings: for Thermal shift (ΔTm) relative to DMSO (2.5%) control: Table S4; for Thermal shift (ΔTm) relative to DMSO (2.5%) control / protein melting temperature (DSF, Table S3): inhibitor 500 µM; for protein melting temperature (DSF, Table S3): 100 mM pH 4.0 NaOAc, 5–10 µM enzyme
Description: (§3) We next used a separate biophysical technique, differential scanning fluorimetry (DSF), to confirm that these compound bind to the various Kdnases. Specifically, we measured protein melting temperatures in the presence of Kdn2en (2) and candidate ligands 13 and 17 (Fig. 3D). […] We repeated this DSF assay on AtK and TrK and we observed similar trends in thermal shifts (Fig. S14 and Tables S2,S3 and S4, Supporting Information). […] Accordingly, further follow up on this compound would need to be pursued with an awareness of this possibility.
(§4) Table S3. Differential scanning fluorometry-based (DSF) assay for inhibitors 2, 13, and 17 binding to Af, At, Tr and MvNA. Protein thermal shifts(ΔTm) using DMSO (2.5%), and inhibitors 2, 13, and 17 at 500 µM against the Kdnase of Af, At, Tr and MvNA. Assay done using 5–10 µM enzyme and 100 mM pH 4.0 NaOAc (pH 5.5 MvNA). A temperature range of 25°C to 95°C was used with a gradient of 0.05°C/sec. […]
(§5) Table S4. Thermal shifts (ΔTm) for stabilization of AfK, AtK, TrK and MvNA on inhibitor binding relative to the DMSO (2.5%) control. […]

[4] = biological target: Trichophyton rubrum Kdnase (TrK) (Trichophyton rubrum, UniProt A0A178EUH2); test: Inhibition assay of recombinant TrK using Kdn4MU as substrate; type: biochemical; settings: for Hill coefficient: pH 4.0
Chain of Trichophyton rubrum Kdnase (TrK) (A0A178EUH2 entry or part of it): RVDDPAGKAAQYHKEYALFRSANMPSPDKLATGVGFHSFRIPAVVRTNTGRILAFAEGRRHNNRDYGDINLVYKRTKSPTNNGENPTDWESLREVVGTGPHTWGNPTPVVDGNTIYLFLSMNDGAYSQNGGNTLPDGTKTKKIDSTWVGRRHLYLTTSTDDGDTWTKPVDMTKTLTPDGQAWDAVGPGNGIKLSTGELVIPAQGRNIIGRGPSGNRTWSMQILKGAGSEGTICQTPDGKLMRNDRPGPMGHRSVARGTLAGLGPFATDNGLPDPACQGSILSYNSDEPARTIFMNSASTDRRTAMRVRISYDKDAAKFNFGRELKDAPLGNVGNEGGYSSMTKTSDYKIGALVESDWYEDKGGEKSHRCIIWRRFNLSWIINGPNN
Description: as §1, §2

AfK [5] = biological target: T2, AfK; test: Differential scanning fluorimetry (DSF) thermal shift assay, AfK; type: binding; settings: for effect on thermal stability of the folded enzyme (DSF, in words): AfK; for protein melting temperature (DSF, Table S3): inhibitor 500 µM, 100 mM pH 4.0 NaOAc, 5–10 µM enzyme; for ΔTm at 500 µM: read-out: Thermal shift (ΔTm) relative to DMSO (2.5%) control
Description: as §3, §4, §5

TrK = test: Differential scanning fluorimetry (DSF) thermal shift assay, TrK; type: binding, Trichophyton rubrum; settings: for Thermal shift (ΔTm) relative to DMSO (2.5%) control: Table S4; for Thermal shift (ΔTm) relative to DMSO (2.5%) control / protein melting temperature (DSF, Table S3): inhibitor 500 µM; for effect on thermal stability of the folded enzyme (DSF, in words): TrK; for protein melting temperature (DSF, Table S3): 100 mM pH 4.0 NaOAc, 5–10 µM enzyme
Description: as §3, §4, §5

neuraminidase MvNA = neuraminidase MvNA (Micromonospora viridifaciens, UniProt Q02834); test: Inhibition assay of the sialidase MvNA using Kdn4MU as substrate; type: biochemical; settings: for Hill coefficient: Table 1, 37 °C, pH 5.5
Chain of neuraminidase MvNA (Q02834 38-647): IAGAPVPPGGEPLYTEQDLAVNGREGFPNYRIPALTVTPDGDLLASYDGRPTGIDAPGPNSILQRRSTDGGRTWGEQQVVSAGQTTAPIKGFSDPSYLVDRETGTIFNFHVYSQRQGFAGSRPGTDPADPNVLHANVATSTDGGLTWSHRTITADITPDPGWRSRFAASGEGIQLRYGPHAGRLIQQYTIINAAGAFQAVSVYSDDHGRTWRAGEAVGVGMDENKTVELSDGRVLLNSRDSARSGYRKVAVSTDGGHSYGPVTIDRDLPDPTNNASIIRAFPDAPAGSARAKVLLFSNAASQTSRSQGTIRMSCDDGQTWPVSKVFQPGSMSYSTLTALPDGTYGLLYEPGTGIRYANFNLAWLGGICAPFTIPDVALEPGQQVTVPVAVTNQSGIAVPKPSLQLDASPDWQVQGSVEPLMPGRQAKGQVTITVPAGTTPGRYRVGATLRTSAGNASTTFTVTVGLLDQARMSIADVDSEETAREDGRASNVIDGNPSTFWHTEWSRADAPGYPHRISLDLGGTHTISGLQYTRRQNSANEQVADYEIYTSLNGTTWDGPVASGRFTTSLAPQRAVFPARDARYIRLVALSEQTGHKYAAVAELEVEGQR
Description: as §1
as §2, with “Inhibitor was added to the reaction mixture and allowed to incubate at rt between 0–60 min in 100 mM sodium acetate buffer pH 4.0 and 0.01% BSA prior to the addition of substrate.” left out

MvNA = MvNA (Micromonospora viridifaciens, UniProt Q02834); test: Differential scanning fluorimetry (DSF) thermal shift assay, MvNA; type: binding; settings: inhibitor 500 µM; for ΔTm at 500 µM: Table S4, read-out: Thermal shift (ΔTm) relative to DMSO (2.5%) control; for protein melting temperature (DSF, Table S3): pH 5.5, 5–10 µM enzyme
Chain of MvNA (Q02834 38-647): as above
Protocol: as §4, §5

[6] = Table 1, 37 °C, Kdn4MU substrate, NaOAc 100 mM pH 4.0, 0.01% BSA
[7] = Table S2, values from this work
[8] = Table 1, 37 °C, Kdn4MU substrate, NaOAc 100 mM pH 4.0, 0.01% BSA, read-out: IC50
[9] = Table 1, calculated Ki = IC50/(([S]/Km) + 1)

O=C(O)/C=C/c1ccc(O)c(O)c1 [caffeic acid, reference compound]
IC50 ([1]; Fig. S10): ~500 µM

C[C@@H]1[C@H](O)[C@@H](C)/C=C/C=C/C=C/C=C/C=C/C=C/C=C/[C@H](O[C@@H]2O[C@H](C)[C@@H](O)[C@H](N)[C@@H]2O)C[C@@H]2O[C@](O)(C[C@@H](O)C[C@@H](O)[C@H](O)CC[C@@H](O)C[C@@H](O)CC(=O)O[C@H]1C)C[C@H](O)[C@H]2C(=O)O [Amphotericin B]
survival outcome (A. fumigatus; immunocompromised mice infected with AfK KO spores): improved survival rate | survival outcome (A. fumigatus; immunocompromised mice infected with wild-type (WT) A. fumigatus spores): complete mortality

O=C(/C=C/c1ccc(O)c2c1[C@H](C(=O)O)[C@@H](c1ccc(O)c(O)c1)O2)O[C@H](Cc1ccc(O)c(O)c1)C(=O)O [compound 13, lithospermic acid]
IC50 [2]: 14.4 ± 0.07 µM | mode of inhibition ([2]; AtK): competitively inhibited | Hill coefficient ([2]; Table 1, 37 °C): −1.36 | inhibitory activity verified in repeat assay of HTS hits (AfK [3]): inhibit AfK | Thermal shift (ΔTm) relative to DMSO (2.5%) control (AtK): –0.8 ± 0.1 °C | protein melting temperature (DSF, Table S3) (AtK): 51.1 ± 0.1 °C | IC50 [4]: 11.8 ± 0.1 µM | Hill coefficient ([4]; Table 1, 37 °C): −0.80 | mode of inhibition ([4]; TrK): competitively inhibited | effect on thermal stability of the folded enzyme (DSF, in words) (AfK [5]): stabilizes neither AfK; also recorded: no effect on the stability of AfK | protein melting temperature (DSF, Table S3) (AfK [5]): 51.4 ± 0.1 °C | ΔTm at 500 µM (AfK [5]): -0.1 °C | Thermal shift (ΔTm) relative to DMSO (2.5%) control (TrK): +13.7 ± 0.1 °C | effect on thermal stability of the folded enzyme (DSF, in words) (TrK): does stabilize TrK | protein melting temperature (DSF, Table S3) (TrK): 48.4 ± 0.1 °C | mode of inhibition (Lineweaver-Burk plots) [1]: competitive inhibitors | fold lower IC50 value than that reported for Kdn2en 2 [1]: 24 fold | IC50 [1, 6]: 22.8 ± 1 µM | Hill coefficient ([1]; Table 1, 37 °C): −1.32 | Ki ([1]; Table 1): 18.7 µM | Hill [1, 7]: –1.32 | time-dependent inhibition ([1]; time points 0, 10 and 60 mins, 50 µM Kdn4MU 1 substrate): no time dependent changes in calculated IC50 values | IC50 (neuraminidase MvNA): 347 ± 2 µM | Hill coefficient (neuraminidase MvNA): −0.90 | ΔTm at 500 µM (MvNA): 1 °C | protein melting temperature (DSF, Table S3) (MvNA): 54.9 ± 0.4 °C

O=C1NC[C@@]2(C(=O)O)CN(Cc3ccc(C4CCCCC4)s3)C[C@@H]12 [compound 17]
IC50 [2, 8]: 50 ± 1.2 µM | Hill coefficient ([2]; Table 1, 37 °C): −0.88 | Ki [2, 9]: 38.5 µM | effect on thermal stability of the folded enzyme (DSF, in words) (AtK; AtK): stabilizes all three Kdnases | Thermal shift (ΔTm) relative to DMSO (2.5%) control (AtK): +3.5 ± 0.1 °C | protein melting temperature (DSF, Table S3) (AtK): 55.4 ± 0.1 °C | IC50 [4, 8]: 93.3 ± 0.8 µM | Hill coefficient ([4]; Table 1, 37 °C): −1.11 | Ki [4, 9]: 73.3 µM | effect on thermal stability of the folded enzyme (DSF, in words) (AfK [5]): stabilizes all three Kdnases; also recorded: positive unfolding temperature shifts | protein melting temperature (DSF, Table S3) (AfK [5]): 54.6 ± 0.1 °C | ΔTm at 500 µM (AfK [5]): 3.1 °C | Thermal shift (ΔTm) relative to DMSO (2.5%) control (TrK): +16.2 ± 0.1 °C | effect on thermal stability of the folded enzyme (DSF, in words) (TrK): stabilizes all three Kdnases | protein melting temperature (DSF, Table S3) (TrK): 50.9 ± 0.1 °C | mode of inhibition (Lineweaver-Burk plots) [1]: competitive inhibitor | fold lower IC50 value than that reported for Kdn2en 2 [1]: 5 fold | IC50 [1, 6]: 115 ± 2 µM | Hill coefficient ([1]; Table 1, 37 °C): −0.81 | Ki ([1]; Table 1): 74.7 µM | IC50 ([1]; Table S2, Kdn4MU substrate, sodium acetate 100 mM pH 4.0, 0.01% BSA, 37 C, values from this work): 115 ± 2 µM | Hill [1, 7]: –0.81 | inhibition of AfK in standard inhibition assay ([1]; purchased compounds, 4MU-Kdn 1 as substrate): inhibited AfK | IC50 (neuraminidase MvNA): 6.6 ± 0.6 µM | Hill coefficient (neuraminidase MvNA): −0.89 | ΔTm at 500 µM (MvNA): 5.2 °C | protein melting temperature (DSF, Table S3) (MvNA): 59.1 ± 0.1 °C
